This is an account of results in ChEMBL document CHEMBL5346863, “Discovery of substituted benzyloxy-benzylamine inhibitors of acetyltransferase Eis and their anti-mycobacterial activity” (Eur J Med Chem, 2022).

In brackets after ≈: the same amount, converted by molar mass. A value given as a limit tells only on which side of the number the result lay.

This experiment concerns Mycobacterium tuberculosis variant bovis. As to the kind of experiment: Antibacterial activity against Mycobacterium bovis BCG ATCC 35734 assessed as bacterial growth inhibition incubated for 2 to 3 weeks by resazurin dye based assay. In kind it is functional. Conditions: time 2-3 weeks.
As for `NNC(=O)c1ccncc1` [ISONIAZID], the MIC was at most 0.25 µM.

Regarding `c1ccc(CNCc2ccc(OCc3ccc(-c4ccccc4)cc3)cc2)cc1`, the MIC amounted to 3.9 µM (≈ 1.48 µg/mL).

As for `CC(C)(C)c1ccc(COc2ccc(CNCc3ccccc3)cc2)cc1`, the MIC amounted to 2 µM (≈ 0.719 µg/mL).

For the molecule `Clc1cccc(COc2ccccc2CNCc2ccccc2)c1`, the MIC stood at 15.6 µM (≈ 5.27 µg/mL).

Turning to `Clc1ccc(COc2cccc(CNCc3ccccc3)c2)cc1`, the MIC is 7.8 µM (≈ 2.64 µg/mL).

Consider `Fc1ccc(COc2ccccc2CNCc2ccccc2)cc1`, for which the MIC is over 62.5 µM.

`Fc1ccc(COc2ccc(CNCc3ccncc3)cc2)cc1`: the MIC is 62.5 µM (≈ 20.1 µg/mL).

Turning to `c1ccc(COc2ccccc2CNCc2ccncc2)cc1`, the MIC was over 62.5 µM.

In the case of `c1ccc(COc2ccc(CNCc3ccncc3)cc2)cc1`, the MIC was over 62.5 µM.

For `Fc1ccc(COc2cccc(CNCc3cccnc3)c2)cc1`, the MIC was over 62.5 µM.

Take `CC(C)c1ccc(COc2ccc(CNCc3ccccc3)cc2)cc1`: the MIC is 1 µM (≈ 0.345 µg/mL).

Turning to `Brc1ccc(COc2ccccc2CNCc2ccncc2)cc1`, the MIC came out at 62.5 µM (≈ 24 µg/mL).

Consider `Brc1ccccc1COc1ccc(CNCc2ccccc2)cc1`, for which the MIC was 7.8 µM (≈ 2.98 µg/mL).

For the molecule `Brc1ccc(COc2ccccc2CNCc2cccnc2)cc1`, the MIC stood at 62.5 µM (≈ 24 µg/mL).

In the case of `Clc1cccc(COc2ccccc2CNCc2ccncc2)c1`, the MIC was over 62.5 µM.

Regarding `Clc1cccc(COc2ccccc2CNCc2cccnc2)c1`, the MIC stood at 62.5 µM (≈ 21.2 µg/mL).

Regarding `c1ccc(COc2ccccc2CNCc2cccnc2)cc1`, the MIC was over 62.5 µM.

For `c1ccc(CNCc2ccccc2OCc2ccccc2)cc1`, the MIC came to 62.5 µM (≈ 19 µg/mL).

Take `Fc1ccc(COc2ccc(CNCc3cccnc3)cc2)cc1`: the MIC was 62.5 µM (≈ 20.1 µg/mL).

Turning to `Clc1ccc(COc2cccc(CNCc3cccnc3)c2)cc1`, the MIC came out at 62.5 µM (≈ 21.2 µg/mL).

On to `c1ccc(COc2ccc(CNCc3cccnc3)cc2)cc1`, for which the MIC was over 62.5 µM.

On to `Cc1ccc(COc2ccc(CNCc3ccccc3)cc2)cc1`, for which the MIC came out at 3.9 µM (≈ 1.24 µg/mL).

Regarding `Clc1ccc(COc2ccc(CNCc3cccnc3)cc2)cc1`, the MIC amounted to 62.5 µM (≈ 21.2 µg/mL).

For `Clc1ccc(COc2ccccc2CNCc2ccccc2)cc1`, the MIC is 62.5 µM (≈ 21.1 µg/mL).

For the molecule `Fc1ccc(COc2ccccc2CNCc2cccnc2)cc1`, the MIC was over 62.5 µM.

With `Brc1cccc(COc2ccc(CNCc3ccccc3)cc2)c1`, the MIC came to 7.8 µM (≈ 2.98 µg/mL).

`Clc1ccc(COc2ccc(CNCc3ccccc3)cc2)cc1`: the MIC is 7.8 µM (≈ 2.64 µg/mL).

Turning to `Fc1ccc(COc2ccc(CNCc3ccccc3)cc2)cc1`, the MIC is over 62.5 µM.

For the molecule `Fc1ccc(COc2cccc(CNCc3ccccc3)c2)cc1`, the MIC is 7.8 µM (≈ 2.51 µg/mL).

In the case of `Brc1ccc(COc2ccccc2CNCc2ccccc2)cc1`, the MIC came to 62.5 µM (≈ 23.9 µg/mL).

As to `Clc1ccc(COc2ccccc2CNCc2ccncc2)cc1`, the MIC was found to be 62.5 µM (≈ 21.2 µg/mL).

Regarding `Brc1ccc(COc2ccc(CNCc3ccccc3)cc2)cc1`, the MIC was 3.9 µM (≈ 1.49 µg/mL).

Regarding `Fc1ccc(COc2cccc(CNCc3ccncc3)c2)cc1`, the MIC was over 62.5 µM.

For `Clc1ccc(COc2ccc(CNCc3ccncc3)cc2)cc1`, the MIC worked out at 31.3 µM (≈ 10.6 µg/mL).

Turning to `c1ccc(CNCc2ccc(OCc3ccccc3)cc2)cc1`, the MIC is 31.3 µM (≈ 9.5 µg/mL).

Turning to `COc1ccc(COc2ccc(CNCc3ccccc3)cc2)cc1`, the MIC was found to be 7.8 µM (≈ 2.6 µg/mL).

Regarding `Clc1ccc(COc2cccc(CNCc3ccncc3)c2)cc1`, the MIC was 62.5 µM (≈ 21.2 µg/mL).
